US6316448A, “Pyrazolo[3,4-d][1,2,3] troazines having anticonvulsant activity and process for their preparation” (priority 1999, dated 2001)

Assays:
[1] = Anticonvulsive action, maximal electroshock (MES), mouse i.p.; assay type: in vivo
Source text: (§1) ^3) Mouse i.p.: MES = maximal electroshock, PTZ = s.c. pentetrazol
(§2) ^5) in % of the protected animals

[2] = Anticonvulsive action, s.c. pentetrazol (PTZ), mouse i.p.; assay type: in vivo
Source text: as §1, §2

[3] = Octanol/water partition coefficient; assay type: physicochemical
Source text: ^2) Octanol/water partition coefficient, n = not measured

[4] = Maximal electroshock, rat p.o.; assay type: in vivo; conditions: po
Description: The compounds according to the invention were tested in vivo for their anticonvulsive action (Table 1) in mice (i.p. administration) or rats (p.o. administration) according to the internationally customary standard (Pharmac. Weekblad, Sc. Ed. 14, 132 (1992) and Antiepileptic Drugs, Third. Ed., Raven Press, New York 1989).
(§3) Analogous results were obtained for the oral action.

[5] = in vivo; conditions: rat, po
Source text: as §3

[6] = ip, mouse i.p., MES, 100 mg/kg, read-out: Action, % of the protected animals (MES)
[7] = ip, mouse i.p., s.c. pentetrazol, 100 mg/kg, read-out: Action, % of the protected animals (PTZ)
[8] = ip, mouse i.p., MES, read-out: Action, % of the protected animals (MES)
[9] = ip, mouse i.p., s.c. pentetrazol, read-out: Action, % of the protected animals (PTZ)

Row | Molecule | responders at 100 mg/kg [1, 6] [%] | responders at 100 mg/kg [2, 7] [%] | logP [3] | responders at 300 mg/kg [2, 9] [%] | other results
1 | O=c1[nH]nnc2nn(Cc3cccc(C(F)(F)F)c3)cc12 [Compound 6, 6-(3-trifluoromethylbenzyl)-3,6-dihydropyrazolo[3,4-d][1,2,3]triazin-4-one] | 66 | 20 | 2.02 | – | –
2 | O=c1[nH]nnc2nn(Cc3ccccc3C(F)(F)F)cc12 [Compound 3, 6-(2-trifluoromethylbenzyl)-3,6-dihydropyrazolo[3,4-d][1,2,3]triazin-4-one] | – | 100 | 1.74 | – | responders at 30 mg/kg [1, 8]: 33%
3 | 6-(2-chloro-4-fluorobenzyl)-5-methyl-3,6-dihydropyrazolo[3,4-d][1,2,3]triazin-4-one [Compound 11] | – | – | – | – | Action, % of the protected animals (MES) ([1]; mouse i.p., MES, 100 mg/kg): 66%; Action, % of the protected animals (PTZ) ([2]; mouse i.p., s.c. pentetrazol, 100 mg/kg): 33%
4 | O=c1[nH]nnc2nn(Cc3ccccc3)cc12 [Compound 12, 6-benzyl-3,6-dihydropyrazolo[3,4-d][1,2,3]triazin-4-one] | 66 | 0 | – | – | –
5 | O=c1[nH]nnc2nn(Cc3cccc(Cl)c3)cc12 [Compound 5, 6-(3-chlorobenzyl)-3,6-dihydropyrazolo[3,4-d][1,2,3]triazin-4-one] | 100 | – | 1.83 | 0 | –
6 | O=c1[nH]nnc2nn(Cc3ccc(Cl)cc3)cc12 [Compound 8, 6-(4-chlorobenzyl)-3,6-dihydropyrazolo[3,4-d][1,2,3]triazin-4-one] | – | – | 1.88 | 100 | responders at 300 mg/kg ([1]; ip, mouse i.p., MES, 300 mg/kg, read-out: Action, % of the protected animals (MES)): 100%
7 | O=c1[nH]nnc2nn(Cc3c(F)cccc3Cl)cc12 [Compound 9, 6-(2-chloro-6-fluorobenzyl)-3,6-dihydropyrazolo[3,4-d][1,2,3]triazin-4one] | – | 100 | 1.38 | – | responders at 10 mg/kg ([1]; ip, mouse i.p., MES, 10 mg/kg, read-out: Action, % of the protected animals (MES)): 20%
8 | Cc1ccccc1Cn1cc2c(=O)[nH]nnc2n1 [Compound 4, 6-(2-methylbenzyl)-3,6-dihydropyrazolo[3,4-d][1,2,3]triazin-4-one] | – | – | 0.74 | 100 | responders at 30 mg/kg [1, 8]: 100%
9 | O=c1[nH]nnc2nn(Cc3ccc(F)cc3)cc12 [Compound 7, 6-(4-fluorobenzyl)-3,6-dihydropyrazolo[3,4-d][1,2,3]triazin-4-one] | 66 | – | 1.28 | 100 | –
10 | O=c1[nH]nnc2nn(Cc3ccccc3F)cc12 [Compound 1, 6-(2-fluorobenzyl)-3,6-dihydropyrazolo[3,4-d][1,2,3]triazin-4-one] | – | 66 | – | – | responders at 30 mg/kg [1, 8]: 100%
11 | CCCC(CCC)C(=O)O [Valproate, reference compound] | – | – | – | – | responders at 100 mg/kg ([1]; Mus musculus, ip, read-out: Action, % of the protected animals (MES)): 0%; responders at 100 mg/kg ([2]; Mus musculus, ip, read-out: Action, % of the protected animals (PTZ)): 30%
12 | Cc1c2c(=O)[nH]nnc2nn1Cc1ccccc1Cl [Compound 10, 6-(2-chlorobenzyl)-5-methyl-3,6dihydropyrazolo[3,4-d][1,2,3]triazin-4one] | 66 | – | – | 0 | –
13 | O=c1[nH]nnc2nn(Cc3ccccc3Cl)cc12 [Compound 2, 6-(2-chlorobenzyl)-3,6-dihydropyrazolo[3,4-d][1,2,3]triazin-4-one] | – | – | 0.82 | – | responders at 30 mg/kg [1, 8]: 100%; responders at 30 mg/kg ([2]; ip, mouse i.p., s.c. pentetrazol, 30 mg/kg, read-out: Action, % of the protected animals (PTZ)): 60%; ED50 [4]: 3 mg/kg; TD50 [5]: > 250 mg/kg
14 | NC(=O)N1c2ccccc2C=Cc2ccccc21 [Carbamazepine, reference compound] | 100 | 0 | – | – | –
